tested on: LoVo-Dox; test: SRB colorimetric cell growth inhibition assay, LoVo-Dox (MDR); assay type: cell-based; details: Homo sapiens, LOVO-DOX; GI=growth inhibition; read-out: GI50 LOVO-DOX
How it was run: (§1)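 Continuous drug exposure of human cancer cells; SRB protein stain read-out; triplicate wells, mean ± SD; GI, TGI, LC computed.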

Which GI50 does the source give for COc1cc(-c2c3c4cc(OC)c(OC(=O)[C@H](C)N)cc4oc(=O)c3n3ccc4cc(OC(=O)[C@H](C)N)c(OC)cc4c23)ccc1OC(=O)[C@H](C)N [Compound 199] here?
The GI50 was 73.7 nM.

same assay, conditions: Homo sapiens, LOVO-DOX; cell killing (cytotoxic effect); read-out: LC50 LOVO-DOX

How did the CC50 turn out when COc1cc(-c2c3c4cc(OC)c(OC(=O)[C@H](C)N)cc4oc(=O)c3n3ccc4cc(OC(=O)[C@H](C)N)c(OC)cc4c23)ccc1OC(=O)[C@H](C)N [Compound 199] was run?
The CC50 was 12200 nM.

same assay, conditions: Homo sapiens, LOVO-DOX; total growth inhibition (cytostatic effect); read-out: TGI LOVO-DOX

Which IC (TGI) does the source give for COc1cc(-c2c3c4cc(OC)c(OC(=O)[C@H](C)N)cc4oc(=O)c3n3ccc4cc(OC(=O)[C@H](C)N)c(OC)cc4c23)ccc1OC(=O)[C@H](C)N [Compound 199] here?
The IC (TGI) was 499 nM.

tested on: IGROV; test: SRB colorimetric cell growth inhibition assay, IGROV; assay type: cell-based; details: Homo sapiens, IGROV; GI=growth inhibition; read-out: GI50 IGROV
How it was run: as §1

For COc1cc(-c2c3c4cc(OC)c(OC(=O)[C@H](C)N)cc4oc(=O)c3n3ccc4cc(OC(=O)[C@H](C)N)c(OC)cc4c23)ccc1OC(=O)[C@H](C)N [Compound 199], which GI50 is on record?
Its GI50 is 18.9 nM.

same assay, conditions: Homo sapiens, IGROV; cell killing (cytotoxic effect); read-out: LC50 IGROV

For COc1cc(-c2c3c4cc(OC)c(OC(=O)[C@H](C)N)cc4oc(=O)c3n3ccc4cc(OC(=O)[C@H](C)N)c(OC)cc4c23)ccc1OC(=O)[C@H](C)N [Compound 199], which CC50 is on record?
Its CC50 is 873 nM.

same assay, conditions: Homo sapiens, IGROV; total growth inhibition (cytostatic effect); read-out: TGI IGROV

Which IC (TGI) does the source give for COc1cc(-c2c3c4cc(OC)c(OC(=O)[C@H](C)N)cc4oc(=O)c3n3ccc4cc(OC(=O)[C@H](C)N)c(OC)cc4c23)ccc1OC(=O)[C@H](C)N [Compound 199] here?
Its IC (TGI) is 96.2 nM.

tested on: DU-145; test: SRB colorimetric cell growth inhibition assay, DU-145; assay type: cell-based; details: Homo sapiens, DU-145, DU-145; GI=growth inhibition; read-out: GI50 DU-145
How it was run: as §1

How did the GI50 turn out when COc1cc(-c2c3c4cc(OC)c(OC(=O)[C@H](C)N)cc4oc(=O)c3n3ccc4cc(OC(=O)[C@H](C)N)c(OC)cc4c23)ccc1OC(=O)[C@H](C)N [Compound 199] was run?
The GI50 was 3.73 nM.

same assay, conditions: Homo sapiens, DU-145, DU-145; cell killing (cytotoxic effect); read-out: LC50 DU-145

Which CC50 does the source give for COc1cc(-c2c3c4cc(OC)c(OC(=O)[C@H](C)N)cc4oc(=O)c3n3ccc4cc(OC(=O)[C@H](C)N)c(OC)cc4c23)ccc1OC(=O)[C@H](C)N [Compound 199] here?
The CC50 was 37.2 nM.

same assay, conditions: Homo sapiens, DU-145, DU-145; total growth inhibition (cytostatic effect); read-out: TGI DU-145

For COc1cc(-c2c3c4cc(OC)c(OC(=O)[C@H](C)N)cc4oc(=O)c3n3ccc4cc(OC(=O)[C@H](C)N)c(OC)cc4c23)ccc1OC(=O)[C@H](C)N [Compound 199], which IC (TGI) is on record?
The IC (TGI) was 9.93 nM.

tested on: LNCaP; test: SRB colorimetric cell growth inhibition assay, LNCaP; assay type: cell-based; details: Homo sapiens, LNCaP, LN-caP; GI=growth inhibition; read-out: GI50 LN-caP
How it was run: as §1

Which GI50 does the source give for COc1cc(-c2c3c4cc(OC)c(OC(=O)[C@H](C)N)cc4oc(=O)c3n3ccc4cc(OC(=O)[C@H](C)N)c(OC)cc4c23)ccc1OC(=O)[C@H](C)N [Compound 199] here?
Its GI50 is 15.8 nM.

same assay, conditions: Homo sapiens, LNCaP, LN-caP; cell killing (cytotoxic effect); read-out: LC50 LN-caP

How did the CC50 turn out when COc1cc(-c2c3c4cc(OC)c(OC(=O)[C@H](C)N)cc4oc(=O)c3n3ccc4cc(OC(=O)[C@H](C)N)c(OC)cc4c23)ccc1OC(=O)[C@H](C)N [Compound 199] was run?
Its CC50 is 392 nM.

same assay, conditions: Homo sapiens, LNCaP, LN-caP; total growth inhibition (cytostatic effect); read-out: TGI LN-caP

How did the IC (TGI) turn out when COc1cc(-c2c3c4cc(OC)c(OC(=O)[C@H](C)N)cc4oc(=O)c3n3ccc4cc(OC(=O)[C@H](C)N)c(OC)cc4c23)ccc1OC(=O)[C@H](C)N [Compound 199] was run?
Its IC (TGI) is 89.2 nM.

tested on: A-549; test: SRB colorimetric cell growth inhibition assay, A-549; assay type: cell-based; details: Homo sapiens, A549, A-549; GI=growth inhibition; read-out: GI50 A-549
How it was run: as §1

With COc1cc(-c2c3c4cc(OC)c(OC(=O)[C@H](C)N)cc4oc(=O)c3n3ccc4cc(OC(=O)[C@H](C)N)c(OC)cc4c23)ccc1OC(=O)[C@H](C)N [Compound 199] as the molecule, how does the GI50 read?
Its GI50 is 60.6 nM.

same assay, conditions: Homo sapiens, A549, A-549; cell killing (cytotoxic effect); read-out: LC50 A-549

How did the CC50 turn out when COc1cc(-c2c3c4cc(OC)c(OC(=O)[C@H](C)N)cc4oc(=O)c3n3ccc4cc(OC(=O)[C@H](C)N)c(OC)cc4c23)ccc1OC(=O)[C@H](C)N [Compound 199] was run?
The CC50 was 12200 nM.

same assay, conditions: Homo sapiens, A549, A-549; total growth inhibition (cytostatic effect); read-out: TGI A-549

How did the IC (TGI) turn out when COc1cc(-c2c3c4cc(OC)c(OC(=O)[C@H](C)N)cc4oc(=O)c3n3ccc4cc(OC(=O)[C@H](C)N)c(OC)cc4c23)ccc1OC(=O)[C@H](C)N [Compound 199] was run?
The IC (TGI) was 1330 nM.

tested on: LoVo; test: SRB colorimetric cell growth inhibition assay, LoVo; assay type: cell-based; details: Homo sapiens, LoVo; GI=growth inhibition; read-out: GI50 LOVO
How it was run: as §1

Which GI50 does the source give for COc1cc(-c2c3c4cc(OC)c(OC(=O)[C@H](C)N)cc4oc(=O)c3n3ccc4cc(OC(=O)[C@H](C)N)c(OC)cc4c23)ccc1OC(=O)[C@H](C)N [Compound 199] here?
The GI50 was 128 nM.

same assay, conditions: Homo sapiens, LoVo; cell killing (cytotoxic effect); read-out: LC50 LOVO

COc1cc(-c2c3c4cc(OC)c(OC(=O)[C@H](C)N)cc4oc(=O)c3n3ccc4cc(OC(=O)[C@H](C)N)c(OC)cc4c23)ccc1OC(=O)[C@H](C)N [Compound 199] was tested. Which CC50 did it give?
The CC50 was 879 nM.

same assay, conditions: Homo sapiens, LoVo; total growth inhibition (cytostatic effect); read-out: TGI LOVO

Which IC (TGI) does the source give for COc1cc(-c2c3c4cc(OC)c(OC(=O)[C@H](C)N)cc4oc(=O)c3n3ccc4cc(OC(=O)[C@H](C)N)c(OC)cc4c23)ccc1OC(=O)[C@H](C)N [Compound 199] here?
The IC (TGI) was 335 nM.

tested on: PANC-1; test: SRB colorimetric cell growth inhibition assay, PANC-1; assay type: cell-based; details: Homo sapiens, PANC-1, PANC-1; GI=growth inhibition; read-out: GI50 PANC-1
How it was run: as §1

How did the GI50 turn out when COc1cc(-c2c3c4cc(OC)c(OC(=O)[C@H](C)N)cc4oc(=O)c3n3ccc4cc(OC(=O)[C@H](C)N)c(OC)cc4c23)ccc1OC(=O)[C@H](C)N [Compound 199] was run?
The GI50 was 36.9 nM.

same assay, conditions: Homo sapiens, PANC-1, PANC-1; cell killing (cytotoxic effect); read-out: LC50 PANC-1

COc1cc(-c2c3c4cc(OC)c(OC(=O)[C@H](C)N)cc4oc(=O)c3n3ccc4cc(OC(=O)[C@H](C)N)c(OC)cc4c23)ccc1OC(=O)[C@H](C)N [Compound 199] was tested. Which CC50 did it give?
Its CC50 is 8080 nM.

same assay, conditions: Homo sapiens, PANC-1, PANC-1; total growth inhibition (cytostatic effect); read-out: TGI PANC-1

With COc1cc(-c2c3c4cc(OC)c(OC(=O)[C@H](C)N)cc4oc(=O)c3n3ccc4cc(OC(=O)[C@H](C)N)c(OC)cc4c23)ccc1OC(=O)[C@H](C)N [Compound 199] as the molecule, how does the IC (TGI) read?
Its IC (TGI) is 276 nM.

— patent US7396837B2, “Antitumoral analogs of lamellarins” (Pharma Mar, S.A.U., priority 2002, dated 2008)
